Laboratory results from patent publication US12416034B2, “Recombinant production of steviol glycosides” (EVOLVA SA, priority 2011, dated 2025).

Legend:
S. cerevisiae = assay: Toxicity of intermediates: growth of S. cerevisiae CEN.PK; assay type: cell-based; conditions: growth of CEN.PK transformants
Description: The effect on S. cerevisiae vitality of geranyl geranyl pyrophosphate (GGPP), ent-copalyl diphosphate (CDP) or ent-kaurene production was investigated by expression of Synechococcus sp GGPPS alone (GGPP production), the GGPPS and the 50 amino acid N-terminally truncated Zea mays CDPS (see Example 16) together (CDP production), or the GGPPS, truncated CDPS and the Arabidopsis thaliana kaurene synthase (KS5) together (ent kaurene production) in the laboratory S. cerevisiae strain CEN.PK background. Genes were expressed from 2μ plasmids with GPD promoters driving transcription of truncated CDPS and KS5, while transcription of the GGPPS was driven by the ADH1 promoter. The growth of S. cerevisiae CEN.PK transformed with various combinations of these plasmids (GGPPS alone; GGPPS+truncated CDPS; or GGPPS+truncated CDPS+KS5) or plasmids without gene insertions was observed. GGPP production, and especially CDP production, was toxic to S. cerevisiae when produced as end products.

RebA solubility in water = assay type: physicochemical
Protocol: The solubility of RebA determines the concentration that can be used both for the whole-cell approach and for the cell-free approach. Several different solutions of RebA in water were made and left at room temperature for several days. After 24 hours of storage, RebA precipitated at concentrations of 50 mM or higher. Twenty-five mM RebA started to precipitate after 4-5 days, while 10 mM or lower concentrations remained in solution, even when stored at 4° C.

[1] = tested on: Stevia rebaudiana kaurene oxidase; assay: Ent-kaurenoic acid accumulation in EFSC2386 with different CPRs (activation of KO1); assay type: cell-based, S. cerevisiae; conditions: LC-MS peak area; with KO-1 in EFSC2386
Chain of Stevia rebaudiana kaurene oxidase (as listed by the source): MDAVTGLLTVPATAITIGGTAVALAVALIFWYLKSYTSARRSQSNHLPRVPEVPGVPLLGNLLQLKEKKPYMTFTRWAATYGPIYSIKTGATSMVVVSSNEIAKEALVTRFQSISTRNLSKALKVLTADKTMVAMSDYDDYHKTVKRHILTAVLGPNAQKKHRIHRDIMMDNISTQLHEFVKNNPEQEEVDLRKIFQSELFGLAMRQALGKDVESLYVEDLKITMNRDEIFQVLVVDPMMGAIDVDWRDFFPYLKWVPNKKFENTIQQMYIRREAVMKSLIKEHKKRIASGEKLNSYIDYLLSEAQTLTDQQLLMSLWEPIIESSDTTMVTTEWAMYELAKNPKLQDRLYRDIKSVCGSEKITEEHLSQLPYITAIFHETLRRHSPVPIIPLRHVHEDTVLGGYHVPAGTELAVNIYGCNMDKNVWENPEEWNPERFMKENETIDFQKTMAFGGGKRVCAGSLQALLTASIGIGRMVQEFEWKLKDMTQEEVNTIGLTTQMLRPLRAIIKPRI
Description: The CEN.PK S. Cerevisiae EFSC2386 strain and the CPRs referred to in this Example are described in the Example 11 (“Identification of S. rebaudiana KAH”). EFSC2386 contained the following integrated genes: Aspergillus nidulans Geranyl geranyl pyrophosphate synthase (GGPPS); Zea mays ent-copalyl diphosphate synthase (CDPS); Stevia rebaudiana ent-kaurene synthase (KS); and Stevia rebaudiana ent-kaurene oxidase (KO). This strain produces ent-kaurenoic acid that was detected by LC-MS analysis.
A collection of cytochrome P450 reductases (CPRs) were expressed and tested in strain EFSC2386; “CPR1” (S. rebaudiana NADPH dependent cytochrome P450 reductase, Kumar et al., Accession no. DQ269454); “ATR1” (A. thaliana CPR, Accession No. CAA23011); “ATR2” (A. thaliana CPR, Accession No. CAA46815); “CPR7” (S. rebaudiana CPR, CPR7 is similar to “CPR1”); “CPR8” (S. rebaudiana CPR, similar to Artemisia annua CPR; and “CPR4” (S. cerevisiae NCP1, Accession No. YHR042W).
Overexpression of the S. cerevisiae endogenous native CPR (referred to as CPR4 in Table 14), and especially overexpression of one of the A. thaliana CPRs namely ATR2, gives good activation of the Stevia rebaudiana kaurene oxidase (the latter called KO1 in Table 14) and results in increased accumulation of ent-kaurenoic acid. See Table 14, which presents the area under curve (AUC) of the ent-kaurenoic acid peak in the LC-MS chromatograms. KO1 is an ent-kaurenoic acid producing yeast control strain without additional overexpression of CPRs.

[2] = tested on: S. cerevisiae strain BY4741; assay: Steviol-feeding experiment of S. cerevisiae strain BY4741; assay type: cell-based
Protocol: Further experiments were conducted to determine if the codon-optimized UGT85C2 could reduce 19-SMG accumulation and increase rubusoside and higher glycosylated steviol glycosides production. The production of 19-SMG and rubusoside were analysed in a steviol-feeding experiment of S. cerevisiae strain BY4741 expressing the wild type UGT74G1 as well as the codon-optimized UGT85C2 from high copy (2p) vectors under strong constitutive promoter (GPD1) (vectors P426-GPD and P423-GPD, respectively). Whole culture samples (without cell removal) were taken and boiled in an equal volume of DMSO for total glycosides levels. Intracellular concentrations reported were obtained by pelleting cells, and resuspending in 50% DMSO to the volume of the original culture sample taken, followed by boiling. The “total” glycosides level and the normalized intracellular level then were measured using LC-MS. Using wild type UGT74G1 and wild type UGT85C2, approximately 13.5 μM rubusoside was produced in total with a maximum normalized intracellular concentration of about 7 μM. In contrast, when wild type UGT74G1 and codon-optimized UGT85C2 were used, a maximum of 26 μM rubusoside was produced, or approximately double of what was produced using the wild type UGT85C2. Additionally, the maximum normalized intracellular concentration of rubusoside was 13 μM, again an approximate doubling of what was produced using wild type UGT85C2. […] Consequently, about 10 μM less total 19-SMG was measured for the codon-optimized UGT85C2.

[3] = co-expressed with wild type UGT74G1, steviol feeding

Molecule | toxicity to S. cerevisiae when produced as end product (S. cerevisiae) | Ent-Kaurenoic Acid (AUC) [1] [AUC] | other results
C=C1CC[C@@H]2C(C)(C)CCC[C@@]2(C)[C@@H]1CC/C(C)=C/COP(=O)(O)OP(=O)(O)O [CDP, ent-copalyl diphosphate] | toxic | – | –
CC(C)=CCC/C(C)=C/CC/C(C)=C/CC/C(C)=C/COP(=O)(O)OP(=O)(O)O [GGPP, geranyl geranyl pyrophosphate] | toxic | – | –
C=C1C[C@@]23CC[C@H]4[C@@](C)(CCC[C@@]4(C)C(=O)O[C@@H]4O[C@H](CO)[C@@H](O)[C@H](O)[C@H]4O)[C@@H]2CC[C@]1(O[C@@H]1O[C@H](CO)[C@@H](O)[C@H](O[C@@H]2O[C@H](CO)[C@@H](O)[C@H](O)[C@H]2O)[C@H]1O[C@@H]1O[C@H](CO)[C@@H](O)[C@H](O)[C@H]1O)C3 [RebA, Rebaudioside A] | – | – | time until precipitation started (RebA solubility in water; Twenty-five mM RebA in water): 4 to 5 days; concentration at which RebA precipitated (RebA solubility in water; water, room temperature, after 24 hours of storage): ≥ 50 mM; concentration that remained in solution (RebA solubility in water; water, several days, even when stored at 4° C.): ≥ 10 mM
C=C1C[C@@]23CC[C@@H]4C(C)(C)CCC[C@@]4(C)[C@@H]2CC[C@@H]1C3 [ent-kaurene] | not be toxic | – | –
ATR-2: A. thaliana CPR, Accession No. CAA46815 | – | 29412 | –
CPR-1: S. rebaudiana NADPH dependent cytochrome P450 reductase, Accession no. DQ269454 | – | 14113 | –
CPR-8: S. rebaudiana CPR, similar to Artemisia annua CPR | – | 12590 | –
codon-optimized UGT85C2: UGT85C2 expressed from the GeneArt codon-optimized sequence; amino acid sequence unchanged (protein, UniProt Q6VAB0 1-481, looked up) UDP-glycosyltransferase 85C2: MDAMATTEKKPHVIFIPFPAQSHIKAMLKLAQLLHHKGLQITFVNTDFIHNQFLESSGPHCLDGAPGFRFETIPDGVSHSPEASIPIRESLLRSIETNFLDRFIDLVTKLPDPPTCIISDGFLSVFTIDAAKKLGIPVMMYWTLAACGFMGFYHIHSLIEKGFAPLKDASYLTNGYLDTVIDWVPGMEGIRLKDFPLDWSTDLNDKVLMFTTEAPQRSHKVSHHIFHTFDELEPSIIKTLSLRYNHIYTIGPLQLLLDQIPEEKKQTGITSLHGYSLVKEEPECFQWLQSKEPNSVVYVNFGSTTVMSLEDMTEFGWGLANSNHYFLWIIRSNLVIGENAVLPPELEEHIKKRGFIASWCSQEKVLKHPSVGGFLTHCGWGSTIESLSAGVPMICWPYSWDQLTNCRYICKEWEVGLEMGTKVKRDEVKRLVQELMGEGGHKMRNKAKDWKEKARIAIAPNGSSSLNIDKMVKEITVLARN | – | – | less total 19-SMG than with wild type UGT85C2 [2]: about 10 μM; maximum intracellular concentration of 19-SMG [2, 3]: 19 µM; maximum normalized intracellular concentration of rubusoside [2, 3]: 13 µM; rubusoside produced in total [2, 3]: 26 µM
CPR-4: S. cerevisiae NCP1, Accession No. YHR042W (protein, UniProt P16603 2-691, looked up) NADPH--cytochrome P450 …: PFGIDNTDFTVLAGLVLAVLLYVKRNSIKELLMSDDGDITAVSSGNRDIAQVVTENNKNYLVLYASQTGTAEDYAKKFSKELVAKFNLNVMCADVENYDFESLNDVPVIVSIFISTYGEGDFPDGAVNFEDFICNAEAGALSNLRYNMFGLGNSTYEFFNGAAKKAEKHLSAAGAIRLGKLGEADDGAGTTDEDYMAWKDSILEVLKDELHLDEQEAKFTSQFQYTVLNEITDSMSLGEPSAHYLPSHQLNRNADGIQLGPFDLSQPYIAPIVKSRELFSSNDRNCIHSEFDLSGSNIKYSTGDHLAVWPSNPLEKVEQFLSIFNLDPETIFDLKPLDPTVKVPFPTPTTIGAAIKHYLEITGPVSRQLFSSLIQFAPNADVKEKLTLLSKDKDQFAVEITSKYFNIADALKYLSDGAKWDTVPMQFLVESVPQMTPRYYSISSSSLSEKQTVHVTSIVENFPNPELPDAPPVVGVTTNLLRNIQLAQNNVNIAETNLPVHYDLNGPRKLFANYKLPVHVRRSNFRLPSNPSTPVIMIGPGTGVAPFRGFIRERVAFLESQKKGGNNVSLGKHILFYGSRNTDDFLYQDEWPEYAKKLDGSFEMVVAHSRLPNTKKVYVQDKLKDYEDQVFEMINNGAFIYVCGDAKGMAKGVSTALVGILSRGKSITTDEATELIKMLKTSGRYQEDVW | – | 25103 | –
